Assay results: patent US20220273684A1, “Systems and Methods to Identify Pancreatic Ductal Adenocarcinoma and Uses Thereof” (The Board of Trustees of the Leland Stanford Junior …, priority 2021, published 2022)

Tests used:
[1] = tested on: acinar cell-derived PDAC cell lines; experiment: Cell viability assay (MTT) after incubation with drug, acinar cell-derived PDAC cell lines; assay type: cell-based
Protocol: (§1) FIGS. 4A-4E illustrate exemplary data that acinar and ductal cell-derived pancreatic cancer cells have different sensitivities to multiple therapeutic agents in accordance with various embodiments of the invention. FIG. 4A illustrates an exemplary method to identify agents to treat specific types of tumors and/or treating an individual based on tumor signature. FIG. 4B illustrates a schematic of the experimental setup. FIG. 4C illustrates cell viability after a 24 hour incubation with 25 μM of GSK-3β inhibitor, TDZD-8. FIG. 4D illustrates cell viability after a 48 hour incubation with 1 mM of glucose analog, 2-DG. FIG. 4E illustrates cell viability after a 72 hour incubation with 100 μM of AKT kinase inhibitor, Capivasertib.
Turning to FIGS. 4A-4E, various embodiments are capable of identifying agents to treat specific types of tumors and/or treating an individual based on tumor signature. Specifically, FIG. 4A illustrates a method 400 to test one or more treatments against tumor-derived cells. At 402, many embodiments obtain one or more cultures of cells. […]
Turning back to FIG. 4A, after treatment, many embodiments assess cellular growth at 408. Cellular growth can be assessed manually or automatedly. […]

[2] = tested on: ductal cell-derived PDAC cell lines; experiment: Cell viability assay (MTT) after incubation with drug, ductal cell-derived PDAC cell lines; assay type: cell-based; conditions: 72 hour incubation with 100 μM Capivasertib; ductal cell-derived relative to acinar cell-derived PDAC lines (FIG. 4E)
Protocol: as §1, with “Capivasertib. Turning to FIGS. 4A-4E, various embodiments are capable of identifying agents to treat specific types of tumors and/or treating an individual based on tumor signature. Specifically, FIG. 4A illustrates a method 400 to test one or more treatments against tumor-derived cells. At 402, many embodiments obtain one or more cultures of cells. In various embodiments, the derived tumor cells are obtained as an admixture of cells, while some embodiments obtain cells as a single type (e.g., healthy, acinar cell-derived, or ductal cell-derived). […] Cellular growth can be assessed manually or automatedly. […]” for “Capivasertib.”

In the case of `Cn1sc(=O)n(Cc2ccccc2)c1=O` [TDZD-8], the cell viability ([1]; 24 hour incubation with 25 μM TDZD-8, acinar cell-derived relative to ductal cell-derived PDAC lines (FIG. 4C)) is reported as “increased viability”.
`NC1(C(=O)N[C@@H](CCO)c2ccc(Cl)cc2)CCN(c2ncnc3[nH]ccc23)CC1` [Capivasertib] was tested, and the cell viability [2] was “increased viability”.
With `OCC1OC(O)CC(O)C1O` (stereo not drawn) [2-DG] the cell viability ([1]; 48 hour incubation with 1 mM 2-DG, acinar cell-derived relative to ductal cell-derived PDAC lines (FIG. 4D)) was “increased viability”.
